What was measured:
[1] = system: gp33 and gp34 specific T-cells; assay: In vivo activity of LNPs: specific CD8 T-cells expansion in mice; conditions: LNPs prepared using the compound, payload 3-GP mRNA (epitopes encoding gp33/34)
Procedure: LNPs prepared using compounds 100, 105, 106 and 109 respectively were evaluated for specific CD8 T-cells expansion in mice where the payload is 3-GP mRNA (comprising epitopes encoding gp33/34).

[2] = Surface pKa of LNPs, TNS fluorescence assay; assay type: physicochemical; conditions: LNPs formed with the ionizable lipid, pH at 50% LNP protonation
Procedure: The surface pKa values of LNPs were determined as follows. Briefly, solutions of 100 mM citrate buffer at, 100 mM Tris-HCl and 50 mM sodium bicarbonate-sodium hydroxide buffer were titrated to pH values varying by 1 from 3.0 to 11.0 and aliquoted into a clear 96-well plate. LNPs and 2-(p-toluidinyl)naphthalene-6-sulfonic acid (TNS) were diluted into these solutions to obtain a final concentration of 20 μM lipid and 6 μM TNS, respectively. Fluorescence intensity was read on a Glowmax discover plate reader at an excitation of 322 nm and an emission of 430 nm. pKa values were calculated as the pH corresponding to 50% LNP protonation, assuming minimum and maximum fluorescence values corresponded to zero and 100% protonation, respectively.

[3] = Lipids stability characterized by 1H NMR; assay type: physicochemical; parameters: key: +: the lipid is stable; Minor: the main characteristic peaks of the lipid are present, no major change of the ^1H NMR spectrum is observed, but some extra peaks appearance observed; Major: main the characteristic peaks of the lipid underwent transformation, some peaks can be missing or decreased in intensity, impurity peaks either increased in size or represent main peaks, as observed on ^1H NMR
Procedure: The lipids stability was evaluated by ^1H NMR at −20° C. and at room temperature. “+” means the lipid is stable, “Minor” means the main characteristic peaks of the lipid are present, no major change of the ^1H NMR spectrum is observed, but some extra peaks appearance observed. “Major” means main the characteristic peaks of the lipid underwent transformation, some peaks can be missing or decreased in intensity, impurity peaks either increased in size or represent main peaks, as observed on ^1H NMR. “n.d.” means “not determined”.

| Surface pKa [2] | Lipids stability characterized by 1H NMR, Room Temperature 1 week ([3]; room temperature) | Lipids stability characterized by 1H NMR, Room Temperature 2 months ([3]; room temperature) | Lipids stability characterized by 1H NMR, Room Temperature 2 weeks ([3]; room temperature) | Lipids stability characterized by 1H NMR, Room Temperature 3 months ([3]; room temperature, 3 months) | Lipids stability characterized by 1H NMR, Room Temperature 3 weeks ([3]; room temperature) | Lipids stability characterized by 1H NMR, Room Temperature 4 weeks ([3]; room temperature) | Lipids stability characterized by 1H NMR, At −20° C. ([3]; 3 months) | SMILES | specific CD8 T-cells expansion [1] |
| --- | --- | --- | --- | --- | --- | --- | --- | --- | --- |
| 7.5 | + | Major | Minor | Major | Minor | Minor | + | CCCCCCCCCCCCCCC(/C=C(\C)CCC=C(C)C)OC(=O)CSSCC(=O)OCCCN(C)C (centres unmarked) [Compound 100] | effective at expanding both gp33 and gp34 specific T-cells |
| 7.0 | + | + | + |  | + | + | + | CCCCC/C=C\CCC(CCCCCCCCCCCCCC)C(CCCCCCCCCCCCCC)OC(=O)CCSSCCC(=O)OCCCN(C)C (centres unmarked) [Compound 109, 3-(dimethylamino)propyl-3-[[3-[2-[(Z)-non-3-enyl]-1-tetradecyl-hexadeoxy]-3-oxo-propyl]disulfanyl]propanoate] | effective at expanding both gp33 and gp34 specific T-cells |

— US20250073164A1, “IONIZABLE DISULFIDE LIPIDS AND LIPID NANOPARTICLES DERIVED THEREFROM” (PROVIDENCE THERAPEUTICS HOLDINGS INC., priority 2021, published 2025)
